Test results taken from patent US9156860B2, “Boron-containing small molecules” (Anacor Pharmaceuticals, Inc., priority 2011, dated 2015).

Test system: adult American dog tick (Dermacentor variabilis)
Experiment: Example 5: efficacy against adult American dog tick infestations on dogs
Assay type: in vivo
Experimental: The therapeutic (knockdown) and residual efficacy of 7 and 8, each administered orally at a point dose of either 25 mg/kg or 50 mg/kg bodyweight, was evaluated against adult tick (Dermacentor variabilis and Rhipicephalus sanguineus) infestations on dogs. Twenty (20) male and female beagle dogs were allocated to one of five treatment groups, four (4) dogs per group: Untreated control; 7, 25 mg/kg; 7, 50 mg/kg; 8, 25 mg/kg; and 8, 50 mg/kg. On Day −1, all dogs were infested with approximately 50 unfed, adult D. variabilis ticks. On Day 0, dogs were orally administered gelatin capsules containing either 7 or 8 (50% technical active, 47% microcrystalline cellulose and 3% croscarmellose sodium, w/w) so as to achieve the desired point dosages. Ticks were counted and classified on all dogs, but not removed, on Day 1 (approximately 24 hours after treatment). On Day 2, approximately 48 hours after treatment, ticks were counted, classified and removed. Dogs were re-infested with the same number of D. variabilis ticks on Days 5, 12 and 19 with corresponding 48 hour post-infestation tick counts on Days 7, 14 and 21. Dogs were infested with approximately 50 unfed, adult brown dog ticks (Rhipicephalus sanguineus; approximately 50% male and 50% female) on Days 15 and 28, with corresponding 48 hour post-infestation tick counts on Days 17 and 30. GM percent efficacy of treatments against both tick species was calculated using the following formula: […]

CC1(C)OB(O)c2ccc(C3=NOC(c4cc(Cl)c(Cl)c(Cl)c4)(C(F)(F)F)C3)cc21 (racemic) [Compound 7, 3,3-Dimethyl-5-(5-(3,4,5-trichlorophenyl)-5-(trifluoromethyl)-4,5-dihydroisoxazol-3-yl)benzo[c][1,2]oxaborol-1(3H)-ol]
% efficacy (25 mg/kg oral capsule, Day 1): (90.4) %
Geometric mean group live tick count (25 mg/kg oral capsule, Day 1): 1.0
Geometric mean group live tick count (25 mg/kg oral capsule, Day 2): 0.0
Geometric mean group live tick count (25 mg/kg oral capsule, Day 7): 0.7
% efficacy (25 mg/kg oral capsule, Day 14): (67.6) %
Geometric mean group live tick count (25 mg/kg oral capsule, Day 14): 5.3
% efficacy (25 mg/kg oral capsule, Day 21): (71.1) %
Geometric mean group live tick count (25 mg/kg oral capsule, Day 21): 4.7
% efficacy (50 mg/kg oral capsule, Day 1): (83.0) %
Geometric mean group live tick count (50 mg/kg oral capsule, Day 1): 1.8
Geometric mean group live tick count (50 mg/kg oral capsule, Day 2): 0.0
Geometric mean group live tick count (50 mg/kg oral capsule, Day 7): 0.4
% efficacy (50 mg/kg oral capsule, Day 14): (88.5) %
Geometric mean group live tick count (50 mg/kg oral capsule, Day 14): 1.9
% efficacy (50 mg/kg oral capsule, Day 21): (80.1) %
Geometric mean group live tick count (50 mg/kg oral capsule, Day 21): 3.2
